These results are taken from PubChem BioAssay (NCI).

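Growth conditions: 96-well plates. Treatment: test compound, 48 hours, 5 concentrations. Analysis: linear interpolation between bracketing concentrations; unreached endpoints set to highest concentration. TGI marks complete inhibition of growth.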 A value given as a limit tells only on which side of the number the result lay.

The first experiment has as its system HOP-92 NSCLC. The experiment is described as follows: NCI-60 cell line screen, 48 h.
Regarding `NC(=O)OCC(COc1ccc(Cl)cc1)OC(=O)c1ccccc1Cl` (stereo unspecified), the TGI is 45.1 µM.

The next experiment relates to SNB-75 CNS. The experiment is described as follows: NCI-60 cell line screen, 48 h.
With `C/C(CN1C(=O)c2ccccc2C1=O)=N\NS(=O)(=O)c1ccc(Br)cc1`, the TGI is over 100 µM.
On the same count and under the same terms, the result for `CC1CC2OC(=O)C3CC(O)CC(=C23)[C@@]12C[C@@H](c1ccoc1)OC2=O` (stereo partly specified) reads over 100 µM.
The same measure, in the same setting: the result for `NC(=S)NNC(=O)/C(=C/c1ccc(/C=C(\NC(=O)c2ccccc2)C(=O)NNC(N)=S)cc1)NC(=O)c1ccccc1` reads 85 µM; that for `NC(=O)OCC(COc1ccc(Cl)cc1)OC(=O)c1ccccc1Cl` (stereo unspecified), over 100 µM.

In another experiment the test system is NCI-H226 lung. The experiment is described as follows: NCI-60 cell line screen, 48 h.
`C/C(CN1C(=O)c2ccccc2C1=O)=N\NS(=O)(=O)c1ccc(Br)cc1` showed a TGI of over 100 µM.
Same read-out and setting: to `CC1CC2OC(=O)C3CC(O)CC(=C23)[C@@]12C[C@@H](c1ccoc1)OC2=O` (stereo partly specified) belongs over 100 µM; to `NC(=S)NNC(=O)/C(=C/c1ccc(/C=C(\NC(=O)c2ccccc2)C(=O)NNC(N)=S)cc1)NC(=O)c1ccccc1`, over 100 µM.
Same read-out and setting: the result for `NC(=O)OCC(COc1ccc(Cl)cc1)OC(=O)c1ccccc1Cl` (stereo unspecified) reads 60.2 µM.

For the next experiment, the system named is RXF-631 renal. Kind of experiment: NCI-60 cell line screen, 48 h.
`NC(=O)OCC(COc1ccc(Cl)cc1)OC(=O)c1ccccc1Cl` (stereo unspecified) gave a TGI of 46 µM.

A further experiment relates to NCI-H23 lung. Kind of experiment: NCI-60 cell line screen, 48 h.
In turn, `C/C(CN1C(=O)c2ccccc2C1=O)=N\NS(=O)(=O)c1ccc(Br)cc1` yielded a TGI of over 100 µM.
Same read-out and setting: the result for `CC1CC2OC(=O)C3CC(O)CC(=C23)[C@@]12C[C@@H](c1ccoc1)OC2=O` (stereo partly specified) reads over 100 µM.
The same measure, in the same setting: the result for `NC(=S)NNC(=O)/C(=C/c1ccc(/C=C(\NC(=O)c2ccccc2)C(=O)NNC(N)=S)cc1)NC(=O)c1ccccc1` reads over 100 µM; that for `NC(=O)OCC(COc1ccc(Cl)cc1)OC(=O)c1ccccc1Cl` (stereo unspecified), 44.8 µM.

Another experiment has as its system SF-539 CNS. Kind of experiment: NCI-60 cell line screen, 48 h.
With `C/C(CN1C(=O)c2ccccc2C1=O)=N\NS(=O)(=O)c1ccc(Br)cc1`, the TGI is over 100 µM.
Take `CC1CC2OC(=O)C3CC(O)CC(=C23)[C@@]12C[C@@H](c1ccoc1)OC2=O` (stereo partly specified): the TGI is over 100 µM.
On the same count and under the same terms, the result for `NC(=S)NNC(=O)/C(=C/c1ccc(/C=C(\NC(=O)c2ccccc2)C(=O)NNC(N)=S)cc1)NC(=O)c1ccccc1` reads over 100 µM.
Still for that read-out and setting: the result for `NC(=O)OCC(COc1ccc(Cl)cc1)OC(=O)c1ccccc1Cl` (stereo unspecified) reads 36.1 µM.

The subject of the next experiment is M19-MEL melanoma. The experiment is described as follows: NCI-60 cell line screen, 48 h.
With `C/C(CN1C(=O)c2ccccc2C1=O)=N\NS(=O)(=O)c1ccc(Br)cc1`, the TGI is over 100 µM.
Take `CC1CC2OC(=O)C3CC(O)CC(=C23)[C@@]12C[C@@H](c1ccoc1)OC2=O` (stereo partly specified): the TGI was over 100 µM.
The same measure, in the same setting: the result for `NC(=S)NNC(=O)/C(=C/c1ccc(/C=C(\NC(=O)c2ccccc2)C(=O)NNC(N)=S)cc1)NC(=O)c1ccccc1` reads over 100 µM.

The next experiment has as its system OVCAR-5 ovarian. Kind of experiment: NCI-60 cell line screen, 48 h.
Molecule `C/C(CN1C(=O)c2ccccc2C1=O)=N\NS(=O)(=O)c1ccc(Br)cc1` registered a TGI of over 100 µM.
Still for that read-out and setting: the result for `CC1CC2OC(=O)C3CC(O)CC(=C23)[C@@]12C[C@@H](c1ccoc1)OC2=O` (stereo partly specified) reads over 100 µM; that for `NC(=S)NNC(=O)/C(=C/c1ccc(/C=C(\NC(=O)c2ccccc2)C(=O)NNC(N)=S)cc1)NC(=O)c1ccccc1`, over 100 µM; that for `NC(=O)OCC(COc1ccc(Cl)cc1)OC(=O)c1ccccc1Cl` (stereo unspecified), 62.8 µM.

For another experiment, the system named is OVCAR-4 ovarian. Kind of experiment: NCI-60 cell line screen, 48 h.
With `C/C(CN1C(=O)c2ccccc2C1=O)=N\NS(=O)(=O)c1ccc(Br)cc1`, the TGI was over 100 µM.
Still for that read-out and setting: to `CC1CC2OC(=O)C3CC(O)CC(=C23)[C@@]12C[C@@H](c1ccoc1)OC2=O` (stereo partly specified) belongs over 100 µM.
On the same count and under the same terms, the result for `NC(=S)NNC(=O)/C(=C/c1ccc(/C=C(\NC(=O)c2ccccc2)C(=O)NNC(N)=S)cc1)NC(=O)c1ccccc1` reads over 100 µM.

The test system of another experiment is HOP-18 NSCLC. Kind of experiment: NCI-60 cell line screen, 48 h.
The molecule `C/C(CN1C(=O)c2ccccc2C1=O)=N\NS(=O)(=O)c1ccc(Br)cc1` came in with a TGI of over 100 µM.
Same read-out and setting: to `CC1CC2OC(=O)C3CC(O)CC(=C23)[C@@]12C[C@@H](c1ccoc1)OC2=O` (stereo partly specified) belongs over 100 µM.
Still for that read-out and setting: to `NC(=S)NNC(=O)/C(=C/c1ccc(/C=C(\NC(=O)c2ccccc2)C(=O)NNC(N)=S)cc1)NC(=O)c1ccccc1` belongs over 100 µM; to `NC(=O)OCC(COc1ccc(Cl)cc1)OC(=O)c1ccccc1Cl` (stereo unspecified), 62.8 µM.

Another experiment concerns UO-31 renal. The experiment is described as follows: NCI-60 cell line screen, 48 h.
As for `C/C(CN1C(=O)c2ccccc2C1=O)=N\NS(=O)(=O)c1ccc(Br)cc1`, the TGI is over 100 µM.
Same read-out and setting: to `CC1CC2OC(=O)C3CC(O)CC(=C23)[C@@]12C[C@@H](c1ccoc1)OC2=O` (stereo partly specified) belongs over 100 µM; to `NC(=S)NNC(=O)/C(=C/c1ccc(/C=C(\NC(=O)c2ccccc2)C(=O)NNC(N)=S)cc1)NC(=O)c1ccccc1`, over 100 µM; to `NC(=O)OCC(COc1ccc(Cl)cc1)OC(=O)c1ccccc1Cl` (stereo unspecified), 51.5 µM.

In the next experiment the test system is SNB-78 CNS. The experiment is described as follows: NCI-60 cell line screen, 48 h.
Consider `C/C(CN1C(=O)c2ccccc2C1=O)=N\NS(=O)(=O)c1ccc(Br)cc1`, for which the TGI is over 100 µM.
Same read-out and setting: the result for `CC1CC2OC(=O)C3CC(O)CC(=C23)[C@@]12C[C@@H](c1ccoc1)OC2=O` (stereo partly specified) reads over 100 µM; that for `NC(=S)NNC(=O)/C(=C/c1ccc(/C=C(\NC(=O)c2ccccc2)C(=O)NNC(N)=S)cc1)NC(=O)c1ccccc1`, over 100 µM; that for `NC(=O)OCC(COc1ccc(Cl)cc1)OC(=O)c1ccccc1Cl` (stereo unspecified), over 100 µM.

For the next experiment, the system named is EKVX NSCLC. The experiment is described as follows: NCI-60 cell line screen, 48 h.
In the case of `C/C(CN1C(=O)c2ccccc2C1=O)=N\NS(=O)(=O)c1ccc(Br)cc1`, the TGI was over 100 µM.
Same read-out and setting: the result for `CC1CC2OC(=O)C3CC(O)CC(=C23)[C@@]12C[C@@H](c1ccoc1)OC2=O` (stereo partly specified) reads over 100 µM.
Same read-out and setting: the result for `NC(=S)NNC(=O)/C(=C/c1ccc(/C=C(\NC(=O)c2ccccc2)C(=O)NNC(N)=S)cc1)NC(=O)c1ccccc1` reads over 100 µM; that for `NC(=O)OCC(COc1ccc(Cl)cc1)OC(=O)c1ccccc1Cl` (stereo unspecified), 70 µM.

In the next experiment the test system is SK-MEL-5 melanoma. Kind of experiment: NCI-60 cell line screen, 48 h.
The molecule `C/C(CN1C(=O)c2ccccc2C1=O)=N\NS(=O)(=O)c1ccc(Br)cc1` gave a TGI of over 100 µM.
On the same count and under the same terms, to `CC1CC2OC(=O)C3CC(O)CC(=C23)[C@@]12C[C@@H](c1ccoc1)OC2=O` (stereo partly specified) belongs over 100 µM.
Still for that read-out and setting: the result for `NC(=S)NNC(=O)/C(=C/c1ccc(/C=C(\NC(=O)c2ccccc2)C(=O)NNC(N)=S)cc1)NC(=O)c1ccccc1` reads over 100 µM; that for `NC(=O)OCC(COc1ccc(Cl)cc1)OC(=O)c1ccccc1Cl` (stereo unspecified), 33.1 µM.

A further experiment concerns RPMI-8226 leukemia. Kind of experiment: NCI-60 cell line screen, 48 h.
Molecule `C/C(CN1C(=O)c2ccccc2C1=O)=N\NS(=O)(=O)c1ccc(Br)cc1` showed a TGI of over 100 µM.
Same read-out and setting: to `CC1CC2OC(=O)C3CC(O)CC(=C23)[C@@]12C[C@@H](c1ccoc1)OC2=O` (stereo partly specified) belongs over 100 µM; to `NC(=S)NNC(=O)/C(=C/c1ccc(/C=C(\NC(=O)c2ccccc2)C(=O)NNC(N)=S)cc1)NC(=O)c1ccccc1`, over 70.2 µM.
`NC(=O)OCC(COc1ccc(Cl)cc1)OC(=O)c1ccccc1Cl` (stereo unspecified): the TGI stood at 51.6 µM.

The subject of the next experiment is MALME-3M melanoma. Kind of experiment: NCI-60 cell line screen, 48 h.
With `C/C(CN1C(=O)c2ccccc2C1=O)=N\NS(=O)(=O)c1ccc(Br)cc1`, the TGI is over 100 µM.
Still for that read-out and setting: the result for `CC1CC2OC(=O)C3CC(O)CC(=C23)[C@@]12C[C@@H](c1ccoc1)OC2=O` (stereo partly specified) reads over 100 µM.
Same read-out and setting: the result for `NC(=S)NNC(=O)/C(=C/c1ccc(/C=C(\NC(=O)c2ccccc2)C(=O)NNC(N)=S)cc1)NC(=O)c1ccccc1` reads over 100 µM.
Still for that read-out and setting: the result for `NC(=O)OCC(COc1ccc(Cl)cc1)OC(=O)c1ccccc1Cl` (stereo unspecified) reads 48.6 µM.
